In patent US5506102A (priority 1993, dated 1996):

Experiments:
PR = details: cited from earlier work
PR-A = molecular target: T1, PR-A (Homo sapiens, UniProt P06401); assay: PR-A regulation of TAT promoter; format: cell-based; parameters: TAT2950-LUC in HeLa, PRE2 tk-LUC in CV-1/HepG2; details: data not shown
T1 sequence (P06401 165-933): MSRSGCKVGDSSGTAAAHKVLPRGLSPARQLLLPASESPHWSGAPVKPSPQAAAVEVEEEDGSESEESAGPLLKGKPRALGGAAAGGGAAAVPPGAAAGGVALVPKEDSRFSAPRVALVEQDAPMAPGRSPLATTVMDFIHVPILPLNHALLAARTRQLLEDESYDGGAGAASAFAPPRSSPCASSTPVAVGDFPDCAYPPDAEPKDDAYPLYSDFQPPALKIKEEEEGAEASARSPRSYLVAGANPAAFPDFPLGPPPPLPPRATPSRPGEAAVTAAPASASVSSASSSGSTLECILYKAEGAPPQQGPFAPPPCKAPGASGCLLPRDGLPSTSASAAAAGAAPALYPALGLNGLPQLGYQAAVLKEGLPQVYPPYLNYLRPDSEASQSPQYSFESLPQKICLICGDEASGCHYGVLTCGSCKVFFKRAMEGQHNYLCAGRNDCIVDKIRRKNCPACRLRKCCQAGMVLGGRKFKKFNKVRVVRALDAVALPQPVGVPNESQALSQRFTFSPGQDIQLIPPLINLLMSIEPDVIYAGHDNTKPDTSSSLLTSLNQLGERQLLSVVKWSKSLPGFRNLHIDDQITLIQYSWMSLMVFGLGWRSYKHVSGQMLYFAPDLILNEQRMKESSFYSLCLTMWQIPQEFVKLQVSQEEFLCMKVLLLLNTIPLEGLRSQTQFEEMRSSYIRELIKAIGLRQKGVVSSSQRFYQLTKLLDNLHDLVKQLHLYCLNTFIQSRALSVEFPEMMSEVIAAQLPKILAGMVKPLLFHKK
Method: (§1) FIGS. 4A-4B are a series of graphs showing CV-1 ([…]) or HepG2 (FIG. 4B) cells that were transiently transfected with either […] of phPR-B or phPR-A alone, or phPR-B in the presence of increasing concentrations of phPR-A, together with 5 µg/ml of the PRE2 tk-LUC reporter and 5 µg/ml of pCH110 as an internal control. HeLa cells (FIG. 4C) were transfected with either phPR-B or phPR-A together with 5 µg/ml of the pTAT2950 reporter and 5 µg/ml of pCH110 as an internal control. […] The relative luciferase activity is calculated by dividing the normalized luciferase value at a given point by that obtained in the absence of transfected receptor or ligand. The data shown represent the mean +/- average deviation from the mean of triplicate estimations;
The 2.9 Kb fragment resulting from the digestion of the pTAT-CAT plasmid, and the 6.7 Kb fragment, containing the luciferase gene and the backbone resulting from MMTV-LUC digestion products, were ligated to create the plasmid TAT2950-LUC.
(§2) Cells were seeded in 12-well, 96-well or 10 cm tissue culture plates. […] 20 μg of DNA/ml of transfection buffer were used in each transfection reaction. […]

[1] = system: PR-B (co-expressed with PR-A); assay: PR-A effect on PR-B mediated PRE2 tk-LUC transcription (co-transfection); format: cell-based, human
Method: as §1
Both reporter plasmids were digested with XhoI and HindIII restriction enzymes and a 6.7 Kb fragment from MMTV-LUC and a 0.12 Kb fragment from PRE2 tk-CAT were isolated and ligated, resulting in a plasmid called PRE2 tk-LUC.
as §2

| Structure (SMILES) | effect on PR DNA binding (PR) | TAT promoter response (PR-A; CV-1, PR-A) | TAT promoter response to progesterone (PR-A; HepG2, phPR-A) | PR-A effect on PR-B activity on PRE2 tk-LUC ([1]; CV-1, 10^-7 M progesterone, FIG. 4A) | PR-A effect on PR-B transcriptional activity on PRE2 tk-LUC ([1]; HepG2, 10^-7 M progesterone, FIG. 4B) |
| --- | --- | --- | --- | --- | --- |
| CC#C[C@]1(O)CC[C@H]2[C@@H]3CCC4=CC(=O)CCC4=C3[C@@H](c3ccc(C(C)=O)cc3)C[C@@]21C [ZK112993] | promotes the association of PR with DNA |  |  |  |  |
| CC(=O)[C@H]1CC[C@H]2[C@@H]3CCC4=CC(=O)CC[C@]4(C)[C@H]3CC[C@]12C [progesterone] |  | unresponsive to either receptor subtype | responded to progesterone | repression of PR-B activity | no effect on PR-B transcriptional activity |
